{"source": "paper PMC11272821", "about": "“Mechanistic safety assessment via multi-omic characterisation of systemic pathway perturbations following in vivo MAT2A inhibition” (Archives of Toxicology, 2024)", "key": {"[1]": {"assay": "7-day-rat investigative safety study (in-life, histopathology, clinical chemistry)", "format": "in vivo", "conditions": "for liver microscopic examination, hepatocyte glycogen stores: 30 mg/kg, compared with vehicles", "experimental": "All in vivo experimental procedures were conducted in accordance with United Kingdom legislation (Animals (Scientific Procedures) Act, 1986) and were compliant with the ARRIVE guidelines. 8–10 week old male (210–230 g) Crl:WI Han Wistar rats (Charles River Laboratories Ltd, UK) were acclimatised to the facility for 10 days and then randomised to groups based on bodyweight.\nFollowing euthanasia and blood sample collections, animals were necropsied and subjected to gross examination. Samples of liver, brain and heart were collected and fixed in 10% neutral buffered formalin at room temperature for 48 h, followed by routine histology processing (Leica Biosystems) to paraffin embedded wax blocks. Paraffin embedded tissues were cut into […] sections using a microtome (Leica Biosystems) and mounted on glass microscope slides. Tissue sections were stained with hematoxylin and eosin and coverslipped. Stained slides were digitally scanned using an AT2 Scanscope pathology slide scanner (Leica Biosystems) and whole slide images were reviewed by a veterinary pathologist.\nA whole blood sample (2.0 mL) was collected into lithium heparin from the caudal vena cava under isoflurane/oxygen anaesthesia immediately prior to euthanasia. Blood samples were centrifuged for 10 min at 4 °C to separate the plasma fraction. Plasma samples were divided into 0.5 mL aliquots and frozen at […] for storage prior to chemistry analysis. Plasma chemistry analysis was performed by Charles River Laboratories (Edinburgh, Scotland) following standard procedures."}, "[2]": {"test_system": "SAM", "assay": "Targeted LC–MS of SAM in plasma, liver, brain and heart", "format": "in vivo, rat", "experimental": "SAM and methionine levels were quantified in plasma samples and tissues using Ultra Performance Liquid Chromatography (UPLC) coupled with quantitative MS in ESI positive ion mode as described in Supplementary M&M.\nFor LCMS analysis, standard curves were spiked to give a calibrated range of 1.0 – 1000 nM for SAM and 1.0 – 2000 for methionine. 5 µL of standard spike solution was added to 45 µL of ACN/MeOH/H2O (40/40/20 v/v/v) and 2.5 µL of deuterated citrulline is added as an internal standard. A further calibration curve was prepared with 5 µL blank mouse plasma, 5 µL of standard and 40 µL of 40:40:20 Acetonitrile:Methanol:0.5% formic acid (Aq) with 2.5 µL of deuterated citrulline was used to investigate matrix suppression effects. Blank plasma was also diluted 1:10 with ACN/MeOH/H2O (40/40/20 v/v/v) and was also analysed to establish systemic biomarker levels.\nMetabolomic sample preparation and analysis. Tissue samples (liver, brain, heart) were extracted with 1 mL of ACN/MeOH/H2O 40/40/20 v/v/v per 100 mg material in a PrecellysCK28K-2 mL tube. Tissues were homogenised/extracted in 3x20 sec shake at 5500 rpm and centrifuged for 5 min at 10,621g. After centrifugation a maximum of 800 µL clear supernatant was transferred to cryovials and the same amount of extraction solvent used in the first step was added to tissue precipitate. Extraction procedure was repeated as above and clear supernatants combined in the same cryovial and vial labelled as polar metabolite extract. On the remaining tissue pellet 1ml (per100mg tissue material) of Butanol/MeOH 3/1v/v was added and the above extraction sequence applied. Resulted clear supernatant transferred to a clean cryovial and labelled as lipid extract. All samples kept at the lowest available temperature (0 °C) throughout the extraction process and stored at -80 °C until further analysis."}, "[3]": {"test_system": "HepG2 Spheroid", "assay": "HepG2 C3A 3D spheroid cytotoxicity", "format": "cell-based", "conditions": "3D spheroids; read-out: HepG2 Spheroid Cytotox IC50", "description": "(§1) Full curve IC50 (µM) for hERG (human ether-a-go-go-related gene) and the cardiac ion channel panel (sodium and potassium ion channels; Nav1.5, IKs, Kv4.3), along with the L-type Calcium channel (Cav-1.2 Ver; verapamil, DIL; diltiazem), HepG2 C3A 3D spheroids, HepG2 C3A (2D cultures in glucose or galactose media), and THP1 cytotoxicity."}, "[4]": {"assay": "LogD (pH 7.4)", "format": "physicochemical"}, "[5]": {"test_system": "rat liver transcriptome", "assay": "Liver transcriptomics", "format": "in vivo", "experimental": "Total RNA was purified from liver samples with RNAdvance Tissue™ kit by Beckman Coulter Life Sciences according to manufacturer’s instructions. The method was carried out in an automated robotic solution with Biomek i7 Hybrid™. The concentration and quality of isolated RNA molecules were measured applying parallel capillary electrophoresis using Agilent Fragment Analyzer 5300 (DNF-471-33-SS Total RNA 15nt). The data were analysed in ProSize data analysis software to derive the concentration and RNA quality numbers (RQN) for individual samples.\nThe double-stranded cDNA obtained with Poly (A)-mRNA enrichment (500 ng total RNA input) was subjected to library preparation using KAPA Hyper Prep Kit (Kapa Biosystems, MA, USA) according to manufacturer’s protocol. The libraries were pooled in a single library and were sequenced on an Illumina NovaSeq6000 with a v1.5 SP 100 cycle kit as paired-end reads to PE51bp. The sequencing runs were carried out according to the manufacturer’s instructions."}, "[6]": {"target": "IKs (Homo sapiens, UniProt P51787)", "sequence (P51787 whole entry)": "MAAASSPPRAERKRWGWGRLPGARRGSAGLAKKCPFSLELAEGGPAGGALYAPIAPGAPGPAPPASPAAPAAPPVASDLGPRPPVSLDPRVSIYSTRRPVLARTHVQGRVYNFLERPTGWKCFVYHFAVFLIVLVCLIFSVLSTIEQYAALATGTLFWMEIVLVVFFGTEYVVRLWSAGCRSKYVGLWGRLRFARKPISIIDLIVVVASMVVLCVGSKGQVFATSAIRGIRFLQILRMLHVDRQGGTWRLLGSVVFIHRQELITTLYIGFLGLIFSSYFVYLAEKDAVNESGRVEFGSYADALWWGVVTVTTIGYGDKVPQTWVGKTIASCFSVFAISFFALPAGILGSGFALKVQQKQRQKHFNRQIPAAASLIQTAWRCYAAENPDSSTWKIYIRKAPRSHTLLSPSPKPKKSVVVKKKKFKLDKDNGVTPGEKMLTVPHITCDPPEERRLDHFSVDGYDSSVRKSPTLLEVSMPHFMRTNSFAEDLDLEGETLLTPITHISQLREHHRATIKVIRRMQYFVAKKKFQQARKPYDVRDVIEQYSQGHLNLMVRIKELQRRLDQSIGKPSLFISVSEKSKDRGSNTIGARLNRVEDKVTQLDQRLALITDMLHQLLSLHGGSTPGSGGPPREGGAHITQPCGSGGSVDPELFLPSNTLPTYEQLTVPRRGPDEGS", "assay": "Cardiac ion channel panel", "format": "cell-based", "conditions": "Full curve", "description": "as §1"}, "[7]": {"target": "Kv4.3 (Homo sapiens, UniProt Q9UK17)", "sequence (Q9UK17 whole entry)": "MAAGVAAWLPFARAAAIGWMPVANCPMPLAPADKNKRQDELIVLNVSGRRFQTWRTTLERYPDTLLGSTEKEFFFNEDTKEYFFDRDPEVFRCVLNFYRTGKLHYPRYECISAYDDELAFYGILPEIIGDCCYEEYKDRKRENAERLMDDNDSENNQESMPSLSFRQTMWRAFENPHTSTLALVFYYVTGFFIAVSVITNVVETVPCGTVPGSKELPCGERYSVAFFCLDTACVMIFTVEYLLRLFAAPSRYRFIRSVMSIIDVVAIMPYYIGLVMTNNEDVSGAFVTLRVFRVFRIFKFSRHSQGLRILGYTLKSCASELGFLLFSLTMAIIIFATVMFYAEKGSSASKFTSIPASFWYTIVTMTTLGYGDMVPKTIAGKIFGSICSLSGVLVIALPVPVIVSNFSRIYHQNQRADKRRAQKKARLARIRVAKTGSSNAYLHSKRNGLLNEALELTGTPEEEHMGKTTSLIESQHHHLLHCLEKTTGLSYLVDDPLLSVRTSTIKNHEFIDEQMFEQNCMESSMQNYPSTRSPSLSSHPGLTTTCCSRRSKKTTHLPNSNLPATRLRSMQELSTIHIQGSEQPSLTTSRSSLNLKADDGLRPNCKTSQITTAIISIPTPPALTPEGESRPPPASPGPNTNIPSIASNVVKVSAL", "assay": "Cardiac ion channel panel", "format": "cell-based", "conditions": "Full curve", "description": "as §1"}, "[8]": {"target": "NaV1.5 (Homo sapiens, UniProt Q14524)", "sequence (Q14524 whole entry)": "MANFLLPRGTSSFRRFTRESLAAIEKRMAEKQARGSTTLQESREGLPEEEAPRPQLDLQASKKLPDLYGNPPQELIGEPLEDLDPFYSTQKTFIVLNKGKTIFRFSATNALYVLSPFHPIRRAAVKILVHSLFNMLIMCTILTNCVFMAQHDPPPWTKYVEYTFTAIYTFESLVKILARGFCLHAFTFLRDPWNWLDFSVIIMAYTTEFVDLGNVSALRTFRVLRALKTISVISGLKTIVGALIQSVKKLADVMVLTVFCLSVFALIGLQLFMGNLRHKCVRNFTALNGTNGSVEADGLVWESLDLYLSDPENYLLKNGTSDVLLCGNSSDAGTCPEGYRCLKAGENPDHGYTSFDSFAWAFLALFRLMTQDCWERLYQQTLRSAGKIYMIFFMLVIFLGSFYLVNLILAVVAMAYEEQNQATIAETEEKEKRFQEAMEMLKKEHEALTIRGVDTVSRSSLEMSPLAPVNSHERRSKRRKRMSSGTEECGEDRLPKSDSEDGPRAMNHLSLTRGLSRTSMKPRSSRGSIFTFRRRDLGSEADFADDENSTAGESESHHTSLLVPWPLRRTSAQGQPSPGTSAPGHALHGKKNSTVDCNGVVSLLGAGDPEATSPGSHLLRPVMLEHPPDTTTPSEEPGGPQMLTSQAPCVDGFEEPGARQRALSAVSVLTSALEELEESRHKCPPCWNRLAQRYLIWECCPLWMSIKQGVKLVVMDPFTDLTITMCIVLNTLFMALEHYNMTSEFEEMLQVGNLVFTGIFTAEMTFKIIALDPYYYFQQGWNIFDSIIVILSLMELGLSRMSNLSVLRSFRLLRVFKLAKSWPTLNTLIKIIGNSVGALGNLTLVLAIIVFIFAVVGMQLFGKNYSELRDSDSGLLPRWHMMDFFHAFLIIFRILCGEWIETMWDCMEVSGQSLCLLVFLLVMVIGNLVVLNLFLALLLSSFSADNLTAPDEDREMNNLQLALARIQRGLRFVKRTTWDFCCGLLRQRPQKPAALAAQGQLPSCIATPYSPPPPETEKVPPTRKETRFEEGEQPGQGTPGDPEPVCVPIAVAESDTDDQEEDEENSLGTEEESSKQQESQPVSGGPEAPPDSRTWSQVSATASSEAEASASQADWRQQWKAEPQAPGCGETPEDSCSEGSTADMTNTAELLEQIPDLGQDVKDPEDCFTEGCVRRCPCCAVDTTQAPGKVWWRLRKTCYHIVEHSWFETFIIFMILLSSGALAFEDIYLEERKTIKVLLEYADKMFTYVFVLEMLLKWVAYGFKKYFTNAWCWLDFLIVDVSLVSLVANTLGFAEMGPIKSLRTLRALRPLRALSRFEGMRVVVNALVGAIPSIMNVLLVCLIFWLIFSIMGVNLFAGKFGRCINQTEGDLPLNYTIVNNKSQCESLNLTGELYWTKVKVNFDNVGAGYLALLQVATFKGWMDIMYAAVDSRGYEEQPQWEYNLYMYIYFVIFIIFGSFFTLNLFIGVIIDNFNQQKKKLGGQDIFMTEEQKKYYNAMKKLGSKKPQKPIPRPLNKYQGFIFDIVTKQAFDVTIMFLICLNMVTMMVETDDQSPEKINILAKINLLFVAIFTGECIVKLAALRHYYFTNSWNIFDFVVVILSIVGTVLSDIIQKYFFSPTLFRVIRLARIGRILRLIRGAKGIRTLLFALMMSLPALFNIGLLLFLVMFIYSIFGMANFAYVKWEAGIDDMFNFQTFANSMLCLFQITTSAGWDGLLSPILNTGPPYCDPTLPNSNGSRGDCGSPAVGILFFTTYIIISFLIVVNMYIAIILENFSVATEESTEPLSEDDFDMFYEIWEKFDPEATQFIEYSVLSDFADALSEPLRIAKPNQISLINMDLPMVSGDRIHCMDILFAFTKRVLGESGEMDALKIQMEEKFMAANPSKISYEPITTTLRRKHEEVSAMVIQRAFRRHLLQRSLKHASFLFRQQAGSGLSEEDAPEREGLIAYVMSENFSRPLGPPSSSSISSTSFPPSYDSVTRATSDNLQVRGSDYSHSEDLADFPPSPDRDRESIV", "assay": "Cardiac ion channel panel", "format": "cell-based", "conditions": "Full curve", "description": "as §1"}, "[9]": {"target": "hERG (Homo sapiens, UniProt Q12809)", "sequence (Q12809 whole entry)": "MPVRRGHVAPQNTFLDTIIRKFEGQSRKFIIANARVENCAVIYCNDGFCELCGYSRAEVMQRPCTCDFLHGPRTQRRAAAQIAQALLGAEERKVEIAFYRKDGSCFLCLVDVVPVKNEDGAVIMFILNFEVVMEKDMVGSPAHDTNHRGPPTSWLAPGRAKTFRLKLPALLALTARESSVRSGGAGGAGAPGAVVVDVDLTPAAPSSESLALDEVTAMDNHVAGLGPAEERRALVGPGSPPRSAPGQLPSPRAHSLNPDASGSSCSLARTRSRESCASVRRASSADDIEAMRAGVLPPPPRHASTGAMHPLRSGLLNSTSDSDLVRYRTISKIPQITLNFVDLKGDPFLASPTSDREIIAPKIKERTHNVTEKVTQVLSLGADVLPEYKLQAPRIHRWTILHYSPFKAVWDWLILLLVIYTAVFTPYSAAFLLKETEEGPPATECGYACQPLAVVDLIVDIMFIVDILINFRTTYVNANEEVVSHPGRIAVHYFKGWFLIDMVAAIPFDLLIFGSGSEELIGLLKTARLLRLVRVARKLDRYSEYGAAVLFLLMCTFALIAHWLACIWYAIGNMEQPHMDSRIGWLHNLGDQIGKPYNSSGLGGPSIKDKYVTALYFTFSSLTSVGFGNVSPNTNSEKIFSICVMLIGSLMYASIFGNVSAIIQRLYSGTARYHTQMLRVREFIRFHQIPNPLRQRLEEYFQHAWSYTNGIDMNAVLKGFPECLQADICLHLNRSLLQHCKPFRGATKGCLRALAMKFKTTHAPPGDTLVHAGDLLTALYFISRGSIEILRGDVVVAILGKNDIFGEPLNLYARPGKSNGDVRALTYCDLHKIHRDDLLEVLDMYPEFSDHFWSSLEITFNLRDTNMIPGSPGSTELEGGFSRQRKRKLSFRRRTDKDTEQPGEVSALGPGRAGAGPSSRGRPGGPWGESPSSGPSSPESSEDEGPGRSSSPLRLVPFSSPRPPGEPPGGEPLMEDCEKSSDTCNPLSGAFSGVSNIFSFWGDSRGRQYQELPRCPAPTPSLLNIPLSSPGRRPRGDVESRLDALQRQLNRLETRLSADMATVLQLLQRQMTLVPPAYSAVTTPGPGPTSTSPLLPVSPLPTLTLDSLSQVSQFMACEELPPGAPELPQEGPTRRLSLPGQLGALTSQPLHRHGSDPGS", "assay": "hERG safety assay", "format": "cell-based", "conditions": "Full curve", "description": "as §1"}, "[10]": {"test_system": "86 targets", "assay": "Secondary pharmacology profiling against 86 targets (Eurofins)", "conditions": "BID dosing of 3, 10 or 30 mg/kg for 7 days", "experimental": "(§2) Secondary pharmacology assays were performed at Eurofins using standard experimental techniques against a total of 86 targets across a broad pharmacological space. Assay details along with experimental protocols are described at https://www.eurofinsdiscoveryservices.com. […] Assays measuring substrate turnover or phosphorylation by isolated proteins were used for kinase and enzyme targets, allowing direct determination of the mode of action of the compounds. […] Assays were run in eight points concentration response mode with half log dilutions and IC50, EC50 or Ki (Cheng and Prusoff [1973]) values determined."}, "[11]": {"target": "T1, Adenosine Transporter (Homo sapiens, UniProt Q99808)", "T1 construct": "Eurofins", "T1 sequence (Q99808 2-456 limits assumed)": "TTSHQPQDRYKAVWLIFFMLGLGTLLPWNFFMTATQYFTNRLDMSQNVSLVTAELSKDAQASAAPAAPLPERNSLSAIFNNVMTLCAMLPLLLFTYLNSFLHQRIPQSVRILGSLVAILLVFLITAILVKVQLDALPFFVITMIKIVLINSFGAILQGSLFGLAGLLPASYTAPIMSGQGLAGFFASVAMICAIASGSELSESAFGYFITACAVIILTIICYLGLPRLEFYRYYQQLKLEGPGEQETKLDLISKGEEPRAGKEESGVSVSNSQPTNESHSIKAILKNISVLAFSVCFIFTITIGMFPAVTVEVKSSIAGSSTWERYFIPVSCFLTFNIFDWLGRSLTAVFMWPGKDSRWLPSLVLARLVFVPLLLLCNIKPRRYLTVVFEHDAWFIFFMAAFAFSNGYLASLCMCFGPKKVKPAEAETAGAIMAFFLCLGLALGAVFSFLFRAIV", "assay": "Functional assay", "format": "cell-based", "experimental": "as §2"}}, "data": [{"smiles": "Cn1cc2cc(-c3cc4[nH]nc(C5CC5)c4n(-c4ccc(OC(F)F)cc4)c3=O)ccc2n1", "note": "[AZ’9567]", "values": [{"measurement": "liver microscopic examination, hepatocyte glycogen stores", "setting": "[1]; listed as AZMAT2Ai", "result": "decrease in glycogen stores"}, {"measurement": "liver microscopic examination, hepatocyte glycogen stores", "setting": "[1]; listed as MAT2Ai", "result": "minimal decrease in hepatocyte glycogen stores"}, {"measurement": "clinical observations during the in-life phase", "setting": "[1]; 3, 10, 30 mg/kg BID, 7 days", "result": "no clinical observations"}, {"measurement": "liver steatosis, histopathology", "setting": "[1]; 8-days study", "result": "no histopathological evidence of liver steatosis"}, {"measurement": "food consumption and body weight", "setting": "[1]; all dose groups", "result": "significant drop"}, {"measurement": "liver pathology", "setting": "[1]; any dose group", "result": "No significant abnormalities detected"}, {"measurement": "bone marrow histopathology", "setting": "[1]; data not shown", "result": "bone marrow toxicity affecting mostly the erythroid compartment"}, {"measurement": "pancreas histopathology", "setting": "[1]; loss of both exocrine and endocrine parenchyma, data not shown", "result": "dose-dependent pancreatic necrosis"}, {"measurement": "histopathological examination of the heart or brain", "setting": "[1]; rat, in vivo", "result": "No microscopic abnormalities"}, {"measurement": "plasma chemistry: markers of liver injury or cholesterol levels", "setting": "[1]; vehicle vs treated animals", "result": "no differences"}, {"measurement": "plasma SAM decrease, lower than the vehicle controls", "setting": "[2]; 30 mg/kg BID", "result": 70, "unit": "%"}, {"measurement": "brain SAM change", "setting": "[2]; 3 and 10 mg/kg BID", "result": "no significant change"}, {"measurement": "heart SAM decrease", "setting": "[2]; all dose levels", "result": "~90", "unit": "%"}, {"measurement": "liver SAM decrease", "setting": "[2]; all doses", "result": "~ 45%"}, {"measurement": "IC50", "setting": "[3]", "result": 58.7, "unit": "µM"}, {"measurement": "LogD (pH 7.4)", "setting": "[4]", "result": 3.4}, {"measurement": "differentially expressed liver genes", "setting": "[5]; high dose (30 mg/kg BID)", "result": 1638}, {"measurement": "differentially expressed liver genes", "setting": "[5]; low dose (3 mg/kg BID)", "result": 2080}, {"measurement": "IC50", "setting": "[6]", "result": "> 33.3", "unit": "µM"}, {"measurement": "IC50", "setting": "[7]", "result": "> 40", "unit": "µM"}, {"measurement": "IC50", "setting": "[8]", "result": "> 40", "unit": "µM"}, {"measurement": "IC50", "setting": "[9]", "result": 33.1, "unit": "µM"}, {"measurement": "cover of secondary pharmacology targets by plasma free Cmax in rats", "setting": "[10]", "result": "none of these targets was covered"}, {"measurement": "Pharmacological mode of action", "setting": "[11]", "result": "Antagonist"}]}]}
